The values that follow come from PubChem BioAssay AID1259407 (Chemical Carcinogenesis Research Information System (CCRIS), 2018).

The test system of this data set is CCRIS mutagenicity, Ames/micronucleus/aberration tests. The data set can be described thus: CCRIS mutagenicity studies.
[1] abbreviates: Test System: AMES SALMONELLA TYPHIMURIUM, Strain/Indicator: TA97, Metabolic Activation: HAMSTER, LIVER, S-9, AROCLOR 1254 (10%), Method: PREINCUBATION
The mark [2] stands for this setting: Test System: AMES SALMONELLA TYPHIMURIUM, Strain/Indicator: TA97, Metabolic Activation: NONE, Method: PREINCUBATION
[3] abbreviates: Test System: AMES SALMONELLA TYPHIMURIUM, Strain/Indicator: TA97, Metabolic Activation: RAT, LIVER, S-9, AROCLOR 1254 (10%), Method: PREINCUBATION
Setting [4] is: Test System: AMES SALMONELLA TYPHIMURIUM, Strain/Indicator: TA98, Metabolic Activation: HAMSTER, LIVER, S-9, AROCLOR 1254 (10%), Method: PREINCUBATION
Where [5] appears, read: Test System: AMES SALMONELLA TYPHIMURIUM, Strain/Indicator: TA98, Metabolic Activation: NONE, Method: PREINCUBATION
[6] abbreviates: Test System: AMES SALMONELLA TYPHIMURIUM, Strain/Indicator: TA98, Metabolic Activation: RAT, LIVER, S-9, AROCLOR 1254 (10%), Method: PREINCUBATION
The mark [7] stands for this setting: Test System: AMES SALMONELLA TYPHIMURIUM, Strain/Indicator: TA100, Metabolic Activation: HAMSTER, LIVER, S-9, AROCLOR 1254 (10%), Method: PREINCUBATION
Setting [8] is: Test System: AMES SALMONELLA TYPHIMURIUM, Strain/Indicator: TA100, Metabolic Activation: NONE, Method: PREINCUBATION
The mark [9] stands for this setting: Test System: AMES SALMONELLA TYPHIMURIUM, Strain/Indicator: TA100, Metabolic Activation: RAT, LIVER, S-9, AROCLOR 1254 (30%), Method: PREINCUBATION
The mark [10] stands for this setting: Test System: AMES SALMONELLA TYPHIMURIUM, Strain/Indicator: TA1535, Metabolic Activation: HAMSTER, LIVER, S-9, AROCLOR 1254 (10%), Method: PREINCUBATION
[11] abbreviates: Test System: AMES SALMONELLA TYPHIMURIUM, Strain/Indicator: TA1535, Metabolic Activation: NONE, Method: PREINCUBATION
Where [12] appears, read: Test System: AMES SALMONELLA TYPHIMURIUM, Strain/Indicator: TA1535, Metabolic Activation: RAT, LIVER, S-9, AROCLOR 1254 (10%), Method: PREINCUBATION

Active and inactive are the calls of the source. No rule for the calls is given here.

`CCCCC(CC)CN` (stereo not given): the mutagenic call was “inactive; negative” under setting [1]; “inactive; negative” (Test System: AMES SALMONELLA TYPHIMURIUM, Strain/Indicator: TA97, Metabolic Activation: HAMSTER, LIVER, S-9, AROCLOR 1254 (30%), Method: PREINCUBATION); “inactive; negative” under setting [2]; “inactive; negative” under setting [3]; “inactive; negative” (Test System: AMES SALMONELLA TYPHIMURIUM, Strain/Indicator: TA97, Metabolic Activation: RAT, LIVER, S-9, AROCLOR 1254 (30%), Method: PREINCUBATION); “inactive; negative” under setting [4]. Besides, the mutagenic call runs as follows: (Test System: AMES SALMONELLA TYPHIMURIUM, Strain/Indicator: TA98, Metabolic Activation: HAMSTER, LIVER, S-9, AROCLOR 1254 (30%), Method: PREINCUBATION) “inactive; negative”; under setting [5], “inactive; negative”; under setting [6], “inactive; negative”; (Test System: AMES SALMONELLA TYPHIMURIUM, Strain/Indicator: TA98, Metabolic Activation: RAT, LIVER, S-9, AROCLOR 1254 (30%), Method: PREINCUBATION) “inactive; negative”; under setting [7], “inactive; negative”; (Test System: AMES SALMONELLA TYPHIMURIUM, Strain/Indicator: TA100, Metabolic Activation: HAMSTER, LIVER, S-9, AROCLOR 1254 (30%), Method: PREINCUBATION) “inactive; negative”. Also, the mutagenic call under setting [8] was “inactive; negative”; the mutagenic call (Test System: AMES SALMONELLA TYPHIMURIUM, Strain/Indicator: TA100, Metabolic Activation: RAT, LIVER, S-9, AROCLOR 1254 (10%), Method: PREINCUBATION) is “inactive; negative”; the mutagenic call under setting [9] was “inactive; negative”; the mutagenic call under setting [10] is “inactive; negative”; the mutagenic call (Test System: AMES SALMONELLA TYPHIMURIUM, Strain/Indicator: TA1535, Metabolic Activation: HAMSTER, LIVER, S-9, AROCLOR 1254 (30%), Method: PREINCUBATION) was “inactive; negative”; the mutagenic call under setting [11] is “inactive; negative”. The mutagenic call is “inactive; negative” under setting [12] and “inactive; negative” (Test System: AMES SALMONELLA TYPHIMURIUM, Strain/Indicator: TA1535, Metabolic Activation: RAT, LIVER, S-9, AROCLOR 1254 (30%), Method: PREINCUBATION).
Regarding `CC(=O)Nc1ccc2c(c1)Cc1cc(NC(C)=O)ccc1-2`, where the note is “Test System: AMES SALMONELLA TYPHIMURIUM, Strain/Indicator: TA1538, Metabolic Activation: RAT, LIVER, S-9, PHENOBARBITAL, Method: STANDARD PLATE”, the mutagenic call was “active; positive”.
Regarding `[N-]=[N+]=NC[C@H]1O[C@H](O)[C@H](O)[C@H](O)[C@@H]1O`, the mutagenic call was “inactive; negative” (Test System: AMES SALMONELLA TYPHIMURIUM, Strain/Indicator: TA98, Metabolic Activation: NONE, Method: STANDARD PLATE) and “active; positive” (Test System: AMES SALMONELLA TYPHIMURIUM, Strain/Indicator: TA100, Metabolic Activation: NONE, Method: STANDARD PLATE).
For the molecule `C=C(Cl)C#N`, the mutagenic call under setting [8] is “inactive; negative” and the mutagenic call (Test System: AMES SALMONELLA TYPHIMURIUM, Strain/Indicator: TA100, Metabolic Activation: RAT, LIVER, S-9, AROCLOR 1254, Method: PREINCUBATION) was “inactive; negative”.
For `CSC[C@H](N)C(=O)O`, the mutagenic call under setting [5] is “inactive; negative”; the mutagenic call (Test System: AMES SALMONELLA TYPHIMURIUM, Strain/Indicator: TA98, Metabolic Activation: RAT, LIVER OR KIDNEY, MICROSOMES, Method: PREINCUBATION) is “inactive; negative”; the mutagenic call under setting [8] is “inactive; negative”; the mutagenic call (Test System: AMES SALMONELLA TYPHIMURIUM, Strain/Indicator: TA100, Metabolic Activation: RAT, LIVER OR KIDNEY, MICROSOMES, Method: PREINCUBATION) is “inactive; negative”; the mutagenic call (Test System: AMES SALMONELLA TYPHIMURIUM, Strain/Indicator: TA102, Metabolic Activation: NONE, Method: PREINCUBATION) was “inactive; negative”; the mutagenic call (Test System: AMES SALMONELLA TYPHIMURIUM, Strain/Indicator: TA102, Metabolic Activation: RAT, LIVER OR KIDNEY, MICROSOMES, Method: PREINCUBATION) was “inactive; negative”. Also, the mutagenic call by setting is: (Test System: AMES SALMONELLA TYPHIMURIUM, Strain/Indicator: TA2638, Metabolic Activation: NONE, Method: PREINCUBATION) “inactive; negative”; (Test System: AMES SALMONELLA TYPHIMURIUM, Strain/Indicator: TA2638, Metabolic Activation: RAT, LIVER OR KIDNEY, MICROSOMES, Method: PREINCUBATION) “inactive; negative”.
Regarding `Nc1ccc([As](=O)(O)O)cc1`, the mutagenic call by setting is: (Test System: AMES SALMONELLA TYPHIMURIUM, Strain/Indicator: TA97, Metabolic Activation: HAMSTER, LIVER, S-9, AROCLOR 1254 (10 OR 30%), Method: PREINCUBATION) “inactive; negative”; under setting [2], “inactive; negative”; (Test System: AMES SALMONELLA TYPHIMURIUM, Strain/Indicator: TA97, Metabolic Activation: RAT, LIVER, S-9, AROCLOR 1254 (10 OR 30%), Method: PREINCUBATION) “inactive; negative”; (Test System: AMES SALMONELLA TYPHIMURIUM, Strain/Indicator: TA98, Metabolic Activation: HAMSTER, LIVER, S-9, AROCLOR 1254 (10 OR 30%), Method: PREINCUBATION) “inactive; negative”; under setting [5], “inactive; negative”; (Test System: AMES SALMONELLA TYPHIMURIUM, Strain/Indicator: TA98, Metabolic Activation: RAT, LIVER, S-9, AROCLOR 1254 (10 OR 30%), Method: PREINCUBATION) “inactive; negative”. The mutagenic call reads like this: (Test System: AMES SALMONELLA TYPHIMURIUM, Strain/Indicator: TA100, Metabolic Activation: HAMSTER, LIVER, S-9, AROCLOR 1254 (10 OR 30%), Method: PREINCUBATION) “inactive; negative”; under setting [8], “inactive; negative”; (Test System: AMES SALMONELLA TYPHIMURIUM, Strain/Indicator: TA100, Metabolic Activation: RAT, LIVER, S-9, AROCLOR 1254 (10 OR 30%), Method: PREINCUBATION) “inactive; negative”; (Test System: AMES SALMONELLA TYPHIMURIUM, Strain/Indicator: TA1535, Metabolic Activation: HAMSTER, LIVER, S-9, AROCLOR 1254 (10 OR 30%), Method: PREINCUBATION) “inactive; negative”; under setting [11], “inactive; negative”; (Test System: AMES SALMONELLA TYPHIMURIUM, Strain/Indicator: TA1535, Metabolic Activation: RAT, LIVER, S-9, AROCLOR 1254 (10 OR 30%), Method: PREINCUBATION) “inactive; negative”.
For `CCN(CC)c1ccc(N)cc1`, the mutagenic call was “inactive; negative” (End Point: IN VITRO CHROMOSOMAL ABERRATIONS, Test System: CHINESE HAMSTER LUNG CELLS (CHL), Metabolic Activation: RAT, LIVER, S-9, KC-400); “active; positive (structural changes)” (End Point: IN VITRO CHROMOSOMAL ABERRATIONS, Test System: CHINESE HAMSTER OVARY CELLS (CHO), Metabolic Activation: NONE); “inactive; negative” (End Point: IN VITRO CHROMOSOMAL ABERRATIONS, Test System: CHINESE HAMSTER OVARY CELLS (CHO), Metabolic Activation: RAT, LIVER, S-9, AROCLOR 1254); “active; positive” under setting [1]; “inactive; negative” under setting [2]; “inactive; negative” under setting [3]. Moreover, the mutagenic call reads like this: under setting [4], “active; positive”; under setting [5], “inactive; negative”; under setting [6], “active; positive”; under setting [7], “active; positive”; under setting [8], “inactive; negative”; under setting [9], “inactive; negative”. Besides, the mutagenic call was “inactive; negative” under setting [10], “inactive; negative” under setting [11] and “inactive; negative” under setting [12].
